According to patent publication US20020055458A1, “Method for the prevention and treatment of retinopathy” (priority 2000, published 2002):

Legend:
[1] = tested on: optic nerve oxygen tension (ONPo2); settings: pig; Stefánsson et al., IOVS 1999; cited from earlier work
[2] = tested on: diabetic retinopathy in patients with diabetes mellitus; experiment: Retrospective clinical study of progression of diabetic retinopathy in diabetics on glaucoma eye drops; format: in vivo, human; settings: for two year event rate (progression of retinopathy): diabetic patients on eye drops for glaucoma or ocular hypertension, 2 years from onset of medication, CAI group n=19, non-CAI group n=12
Protocol: In a retrospective clinical study, the hypothesis that dorzolamide eye drops (Trusopt®) used bid or tid for glaucoma or ocular hypertension would slow the progression of diabetic retinopathy in patients with diabetes mellitus was tested. Since 1980, a screening program has been in place for diabetic eye disease at the Department of Ophthalmology, University of Iceland, Reykjavik, Iceland. Eye examinations of diabetic patients have been performed annually and examination results have been documented. A retrospective study was undertaken to find those diabetics who were using CAIs or beta-blockers (such as timolol) for either glaucoma or ocular hypertension. These candidates were selected from the general population of the screening program. In total, 31 patients were found. Of these 31, 19 were prescribed CAIs or a combination of CAIs and beta-blockers. The remaining 12 patients were taking a non-CAI medication and served as a control group in the study. The examination findings were reviewed to determine if the changes in retinopathy rating could be associated with CAI use. Also noted was historical information such as length of time since diabetes had been diagnosed, type of medication and time span of usage, visual acuity and other relevant comments. Of those using a CAI, 12 were men and seven were women. The mean age was 67 (range 28-80) for men and 73 (range 62-81) for women. The average time since diagnosis of diabetes mellitus was 14.1 years (SD=9.7 years). The average frequency of check-ups was every 9.1 months (SD=10.7 months). There was an average of 7.4 years of eye examinations and fundus photographs on record (SD=6 years) and the patients were on a CAI for an average of 18.2 months (SD=14.4 months). Of those in the non-CAI (control) group, seven were men and five were women. The mean age was 73 (range 54-82) for men and 75 (range 67-86) for women. The average time since diabetic diagnosis was 15.3 years (SD=7.8 years). The average frequency of check-ups was every 10.9 months (SD=7.9 months). There was an average of 6.2 years of eye examinations and fundus photographs on record (SD=4 years) and the patients were on medication for an average of 58.8 months (SD=52.4 months).

Structure (SMILES)	effect on optic nerve oxygen tension (ONPo2) [1]	two year event rate (progression of retinopathy) [2] [%]	development of sight-threatening retinopathy during the treatment period ([2]; diabetics in the treated group)	rate of progression of diabetic retinopathy compared with diabetics receiving timolol eye drops and with the total population of diabetics in Iceland ([2]; diabetics using eye drops on a regular basis)	overall event rate (retinopathy change) for the entire observation period ([2]; non-CAI (control) group, 12 diabetic patients, entire observation period) [%]
CC(=O)Nc1nnc(S(N)(=O)=O)s1 [Acetazolamide, N-[5-(aminosulfonyl)-1,3,4-thiadiazol-2-yl]acetamide]	increased ONPo2				
CCN[C@H]1C[C@H](C)S(=O)(=O)c2sc(S(N)(=O)=O)cc21 [dorzolamide]	increased ONPo2	0	none	lower rate of progression of diabetic retinopathy	
CC(C)(C)NC[C@H](O)COc1nsnc1N1CCOCC1 [timolol]		8.3			25
